In data set [1] the test system is Human immunodeficiency virus. The data set can be described thus: Antiviral activity in MT4 human T lymphoid cells infected with wild type NL4-3 HIV. Type of data set: functional. Particulars: Human immunodeficiency virus 1, NL4-3, MT4; read-out: CIC95.
Data set [2] deals with Human immunodeficiency virus. The data set can be described thus: Antiviral activity against 4X HIV strain. The data set is classed as functional. Particulars: Human immunodeficiency virus 1, 4X; read-out: CIC95.
Data set [3] concerns Human immunodeficiency virus. The data set can be described thus: Antiviral activity against mutant HIV isolate K-60C. Type of data set: functional. Particulars: Human immunodeficiency virus 1, K-60; read-out: CIC95.
Data set [4] concerns Human immunodeficiency virus. The data set can be described thus: Antiviral activity against mutant HIV isolate V-18C. The data set is classed as functional. Particulars: Human immunodeficiency virus 1, V-18C; read-out: CIC95.
In data set [5] the test system is Human immunodeficiency virus. The data set can be described thus: Antiviral activity against mutant HIV isolate Q-60C. Type of data set: functional. Conditions: Human immunodeficiency virus 1, Q-60C; read-out: CIC95.
Data set [6] concerns the target Human immunodeficiency virus type 1 protease (Human immunodeficiency virus 1, UniProt Q72874).
Description: Inhibitory activity against HIV protease
Data set [7] can be described thus: Cmax in rat at 2 mg/kg, po. Type of data set: ADME, organism-based. More on the design: dose 2 mg/kg, route oral. Particulars: in vivo.
For data set [8], the system named is Rattus norvegicus. Description: AUC in rat at 2 mg/kg, po. Type of data set: ADME, organism-based, Plasma. More on the design: dose 2 mg/kg, route oral. Particulars: in vivo.
Data set [9] is described as follows: Oral bioavailability in rat at 2 mg/kg, po. The data set is classed as ADME, organism-based. Conditions: in vivo.
The nature of data set [10]: Half life in rat at 2 mg/kg, po. Type of data set: ADME, organism-based. More on the design: dose 2 mg/kg, route oral. Particulars: in vivo.
A short description of data set [11]: Plasma clearance in rat at 2 mg/kg, po. More on the design: dose 2 mg/kg, route oral. The data set is classed as ADME, organism-based.
The target in another data set is Cytochrome P450 3A4 (Homo sapiens, UniProt P08684). Description: Inhibitory activity against CYP3A4. The data set is classed as ADME.
Chain of Cytochrome P450 3A4 (P08684 whole entry): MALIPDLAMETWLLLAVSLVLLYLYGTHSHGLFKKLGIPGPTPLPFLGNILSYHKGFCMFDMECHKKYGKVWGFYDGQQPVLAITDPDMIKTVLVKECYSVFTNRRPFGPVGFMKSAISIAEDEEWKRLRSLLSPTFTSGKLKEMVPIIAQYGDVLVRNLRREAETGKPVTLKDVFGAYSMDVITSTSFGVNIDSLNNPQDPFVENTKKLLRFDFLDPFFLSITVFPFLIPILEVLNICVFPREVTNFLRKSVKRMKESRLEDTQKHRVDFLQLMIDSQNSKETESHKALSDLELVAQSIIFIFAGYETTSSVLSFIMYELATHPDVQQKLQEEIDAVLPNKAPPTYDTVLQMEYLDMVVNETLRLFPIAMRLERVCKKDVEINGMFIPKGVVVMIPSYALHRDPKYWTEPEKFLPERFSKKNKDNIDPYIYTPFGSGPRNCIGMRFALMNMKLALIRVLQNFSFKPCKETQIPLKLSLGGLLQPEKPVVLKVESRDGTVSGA
The target in the next data set is Cytochrome P450 2D6 (Homo sapiens, UniProt P10635). The data set can be described thus: Inhibitory activity against CYP2D6. The data set is classed as ADME.
Chain of Cytochrome P450 2D6 (P10635 whole entry): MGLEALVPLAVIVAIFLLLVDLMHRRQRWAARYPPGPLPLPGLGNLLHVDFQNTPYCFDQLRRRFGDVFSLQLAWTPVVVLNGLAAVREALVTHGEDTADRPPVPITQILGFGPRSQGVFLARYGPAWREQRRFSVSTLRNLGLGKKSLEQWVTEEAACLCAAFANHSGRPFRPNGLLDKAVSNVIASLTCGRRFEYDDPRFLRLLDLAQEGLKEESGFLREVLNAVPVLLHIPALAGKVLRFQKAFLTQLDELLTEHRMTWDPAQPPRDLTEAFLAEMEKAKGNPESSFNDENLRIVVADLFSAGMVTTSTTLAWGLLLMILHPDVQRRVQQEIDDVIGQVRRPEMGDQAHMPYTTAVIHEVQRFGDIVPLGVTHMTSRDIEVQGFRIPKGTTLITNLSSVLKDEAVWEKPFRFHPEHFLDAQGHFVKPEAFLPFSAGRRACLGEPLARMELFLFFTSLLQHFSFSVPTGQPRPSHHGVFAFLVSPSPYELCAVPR
A further data set addresses Cytochrome P450 2C9 (Homo sapiens, UniProt P11712). The data set can be described thus: Inhibitory activity against CYP2C9. The data set is classed as ADME.
Data set [12] in a line: Cmax in rat at 10 mg/kg, po. Particulars: in vivo. More on the design: dose 10 mg/kg, route oral. Type of data set: ADME, organism-based.
The subject of data set [13] is Rattus norvegicus. The data set can be described thus: AUC in rat at 10 mg/kg, po. The data set is classed as ADME, organism-based, Plasma. More on the design: dose 10 mg/kg, route oral. Conditions: in vivo.
Data set [14] in a line: Oral bioavailability in rat at 10 mg/kg, po. The data set is classed as ADME, organism-based. Conditions: in vivo.
Data set [15] can be described thus: Half life in rat at 10 mg/kg, po. Type of data set: ADME, organism-based. More on the design: dose 10 mg/kg, route oral. Particulars: in vivo.
Data set [16] can be described thus: Plasma clearance in rat at 10 mg/kg, po. Type of data set: ADME, organism-based. More on the design: dose 10 mg/kg, route oral.
The nature of data set [17]: Cmax in dog at 10 mg/kg, po. More on the design: dose 10 mg/kg, route oral. The data set is classed as ADME, organism-based, Canis lupus familiaris. Particulars: in vivo.
A further data set relates to Canis familiaris. The data set can be described thus: AUC in dog at 10 mg/kg, po. More on the design: dose 10 mg/kg, route oral. Conditions: in vivo. Type of data set: ADME, organism-based, Canis lupus familiaris, Plasma.
Data set [18] in a line: Oral bioavailability in dog at 10 mg/kg, po. Type of data set: ADME, organism-based, Canis lupus familiaris. Conditions: in vivo.
Data set [19] in a line: Half life in dog at 10 mg/kg, po. The data set is classed as ADME, organism-based, Canis lupus familiaris. More on the design: dose 10 mg/kg, route oral. Conditions: in vivo.
Data set [20] is described as follows: Plasma clearance in dog at 10 mg/kg, po. The data set is classed as ADME, organism-based, Canis lupus familiaris. More on the design: dose 10 mg/kg, route oral.

Molecules are shown by their SMILES. Where only a bound is given, the exact number is not on record here.

Chain of Cytochrome P450 2C9 (P11712 whole entry): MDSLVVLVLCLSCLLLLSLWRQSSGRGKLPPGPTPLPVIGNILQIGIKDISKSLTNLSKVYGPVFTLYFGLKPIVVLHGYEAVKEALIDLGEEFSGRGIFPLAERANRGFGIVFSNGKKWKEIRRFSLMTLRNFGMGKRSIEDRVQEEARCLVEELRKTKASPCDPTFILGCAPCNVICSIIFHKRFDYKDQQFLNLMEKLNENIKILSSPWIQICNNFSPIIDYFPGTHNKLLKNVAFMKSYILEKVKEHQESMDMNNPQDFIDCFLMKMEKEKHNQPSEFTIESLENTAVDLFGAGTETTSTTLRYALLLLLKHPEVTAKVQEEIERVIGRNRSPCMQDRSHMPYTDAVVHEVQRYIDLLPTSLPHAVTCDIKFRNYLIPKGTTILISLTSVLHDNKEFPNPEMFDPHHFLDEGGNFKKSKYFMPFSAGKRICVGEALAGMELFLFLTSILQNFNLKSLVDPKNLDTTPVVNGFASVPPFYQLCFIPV

`O=C(N[C@H]1c2ccccc2OC[C@H]1O)[C@H](Cc1cc2cnccc2s1)C[C@H](O)CN1CCN(Cc2csc(-c3ccc(C(F)(F)F)cc3)n2)C[C@H]1C(=O)NCC(F)(F)F`: the IC95 worked out at 26 nM in data set [1]; 125 nM in data set [2]; 31.3 nM in data set [3]; 375 nM in [4]; 93.8 nM in data set [5]. In addition, in data set [6], the IC50 (as a rule, the midpoint of a concentration-inhibition curve) came out at 0.07 nM.
`Cc1ccncc1-c1ccc(C[C@H](C[C@H](O)CN2CCN(Cc3csc(-c4ccc(F)cc4)n3)C[C@H]2C(=O)NCC(F)(F)F)C(=O)N[C@H]2c3ccccc3OC[C@H]2O)o1`: the IC95 in [1] is below 7.8 nM; in [2] it was 15.6 nM; in [3], 125 nM; in [4] it was 62.5 nM; in data set [5], 125 nM. This compound also came in with an IC50 in [6] of 0.11 nM.
Take `O=C(N[C@H]1c2ccccc2OC[C@H]1O)[C@H](Cc1cc2cnccc2s1)C[C@H](O)CN1CCN(Cc2ccc(-c3ccc(Cl)cc3)o2)C[C@H]1C(=O)NCC(F)(F)F`: the IC95 in data set [1] was 15.6 nM; in data set [2] it was 15.6 nM; in data set [3], below 7.8 nM; in [4], 125 nM; in [5] it was 31.3 nM. In addition, the IC50 in [6] turned out to be 0.03 nM.
In the case of `Cc1ccncc1-c1ccc(C[C@H](C[C@H](O)CN2CCN(Cc3ccc(-c4ccc(Cl)cc4)o3)C[C@H]2C(=O)NCC(F)(F)F)C(=O)N[C@H]2c3ccccc3OC[C@H]2O)o1`, the IC95 was 15.6 nM in data set [1]; 31.3 nM in data set [2]; below 7.8 nM in data set [3]; 125 nM in data set [4]; 62.5 nM in data set [5]. This compound returned an IC50 in data set [6] of 0.08 nM.
Turning to `O=C(N[C@H]1c2ccccc2OC[C@H]1O)[C@H](Cc1cc2cnccc2s1)C[C@H](O)CN1CCN(Cc2ccc(-c3ccc(Cl)cc3)s2)C[C@H]1C(=O)NCC(F)(F)F`, the IC95 in [1] came out at 15.6 nM; in [2], 15.6 nM; in [3], 31.3 nM; in data set [4], 125 nM; in [5] it was 31.3 nM. The compound also registered an IC50 in data set [6] of 0.05 nM.
For the compound `Cc1ccncc1-c1ccc(C[C@H](C[C@H](O)CN2CCN(Cc3ccc(-c4ccc(Cl)cc4)s3)C[C@H]2C(=O)NCC(F)(F)F)C(=O)N[C@H]2c3ccccc3OC[C@H]2O)o1`, the IC95 in [1] is below 7.8 nM; in [2], 15.6 nM; in data set [3], 125 nM; in data set [4] it was 62.5 nM; in data set [5], 62.5 nM. Moreover, in [6], half-maximal inhibition (IC50) required 0.04 nM.
For the compound `O=C(N[C@H]1c2ccccc2OC[C@H]1O)[C@H](Cc1cc2ccncc2o1)C[C@H](O)CN1CCN(Cc2ccc(-c3ccc(Cl)cc3)o2)C[C@H]1C(=O)NCC(F)(F)F`, the IC95 is below 7.8 nM in data set [1]; 31.3 nM in [2]; below 7.8 nM in data set [3]; 62.5 nM in data set [4]; 15.6 nM in [5]. In data set [6], this compound gave a 50% inhibitory concentration (IC50) of 0.05 nM.
For `Cc1ccncc1-c1ccc(C[C@H](C[C@H](O)CN2CCN(C(C)(C)c3ncc(-c4ccc(Cl)cc4)s3)C[C@H]2C(=O)NCC(F)(F)F)C(=O)N[C@H]2c3ccccc3OC[C@H]2O)o1`, the IC95 in data set [1] came to 15.6 nM; in data set [2] it was 31.3 nM; in data set [3] it was 15.6 nM; in data set [4], 250 nM; in data set [5], 31.3 nM. Further, the IC50 in [6] is 0.03 nM.
In the case of `CC(C)(c1ncc(-c2ccc(Cl)cc2)o1)N1CCN(C[C@@H](O)C[C@@H](Cc2cc3cnccc3s2)C(=O)N[C@H]2c3ccccc3OC[C@H]2O)[C@H](C(=O)NCC(F)(F)F)C1`, the IC95 in data set [1], in data set [2], in data set [3], in data set [4] and in data set [5] was below 7.8 nM in each case. Also, the peak level in [7] (Cmax) was 52 nM. The compound also had an AUC in the data set with Rattus norvegicus [8] of 0.36 uMh. Also, the bioavailability (as a rule, the share of a dose that reaches the circulation, judged against a reference dose that is usually intravenous) in data set [9] came out at 7.3%. The half-life (as a rule, the time in which the quantity being followed falls by half) in [10] came out at 48 min. For the same compound, in data set [11], the CL/F (commonly the apparent clearance, not corrected for the fraction that reaches the circulation) was 111 mL/min/kg. The IC50 on Cytochrome P450 3A4 was below 1000 nM; on Cytochrome P450 2D6, below 1000 nM; at Cytochrome P450 2C9, below 1000 nM; in data set [6], 0.02 nM.
Regarding `CC(C)(c1ncc(-c2ccc(Cl)cc2)o1)N1CCN(C[C@@H](O)C[C@@H](Cc2cc3ccncc3s2)C(=O)N[C@H]2c3ccccc3OC[C@H]2O)[C@H](C(=O)NCC(F)(F)F)C1`, the IC95 in [1], in data set [2], in [3], in data set [4] and in [5] was below 7.8 nM throughout. In [6], the IC50 was below 0.02 nM.
Take `CC(C)(c1ncc(-c2ccc(Cl)cc2)o1)N1CCN(C[C@@H](O)C[C@@H](Cc2cc3ccncc3o2)C(=O)N[C@H]2c3ccccc3OC[C@H]2O)[C@H](C(=O)NCC(F)(F)F)C1`: the IC95 in [1] is below 7.8 nM; in data set [2], below 7.8 nM; in [3], below 7.8 nM; in [4] it was 31 nM; in data set [5], below 7.8 nM. Besides, the Cmax (commonly the peak of the concentration-time curve) in data set [12] is 180 nM; in data set [17], 2100 nM. In addition, the AUC is on record as 0.29 uMh in the data set on Rattus norvegicus [13] and 0.39 uMh in the data set on Canis familiaris. In addition, the figures for the bioavailability in [14] and in data set [18] were 14% and 42%, respectively. Moreover, the half-life in data set [15] is 48 min; in [19] it was 60 min. For the same compound, the apparent clearance (CL/F) in data set [16] was determined as 98 mL/min/kg; in [20] it was 23 mL/min/kg. The IC50 is below 1000 nM against Cytochrome P450 3A4, below 1000 nM against Cytochrome P450 2D6, below 1000 nM on Cytochrome P450 2C9 and 0.02 nM in data set [6].
For `CC(C)(c1ncc(-c2ccc(Cl)cc2)s1)N1CCN(C[C@@H](O)C[C@@H](Cc2cc3cnccc3s2)C(=O)N[C@H]2c3ccccc3OC[C@H]2O)[C@H](C(=O)NCC(F)(F)F)C1`, the IC95 is below 7.8 nM in [1]; below 7.8 nM in data set [2]; below 7.8 nM in data set [3]; 31.3 nM in data set [4]; below 7.8 nM in data set [5]. In [6], this compound returned a half-inhibitory concentration (IC50) of 0.04 nM.
For the compound `CC(C)(c1ncc(-c2ccc(Cl)cc2)o1)N1CCN(C[C@@H](O)C[C@@H](Cc2cc3c(Cl)cncc3s2)C(=O)N[C@H]2c3ccccc3OC[C@H]2O)[C@H](C(=O)NCC(F)(F)F)C1`, the IC95 in [1] was below 7.8 nM; in data set [2] it was below 7.8 nM; in data set [3], below 7.8 nM; in [4] it was 15.6 nM; in data set [5], below 7.8 nM. In data set [6], this compound returned an IC50 below 0.02 nM.
In the case of `Cc1ccncc1-c1ccc(C[C@H](C[C@H](O)CN2CCN(Cc3ncc(-c4ccc(Cl)cc4)o3)C[C@H]2C(=O)NCC(F)(F)F)C(=O)N[C@H]2c3ccccc3OC[C@H]2O)o1`, the IC95 in [1] is below 7.8 nM; in data set [2] it was 62.5 nM; in data set [3] it was 15.6 nM; in [4], 125 nM; in [5] it was 62.5 nM. The same compound returned an IC50 in data set [6] of 0.03 nM.
Turning to `CC(C)(C)NC(=O)[C@@H]1CN(Cc2cccnc2)CCN1C[C@@H](O)C[C@@H](Cc1ccccc1)C(=O)N[C@H]1c2ccccc2C[C@H]1O`, the IC95 in [1] is 50 nM; in data set [2], 400 nM; in data set [3], above 1000 nM; in data set [4], above 1000 nM; in data set [5], above 1000 nM.

For the origin of these results see ChEMBL document CHEMBL1141938 (Bioorg Med Chem Lett, 2005).
